Values quoted from earlier work, collected in patent publication US9326524B1, “Insect repellent compositions” (Nantucket Spider, LLC, priority 2014, dated 2016).

System: mosquitoes
Settings: compared with naturally derived PMD in the form of OLE

SMILES: CC1CCC(C(C)(C)O)C(O)C1 (stereo not shown) [Pure PMD, p-Menthane-3,8-diol]
- efficacy in repelling mosquitoes: significantly less efficacious
